Assay results as given in PMC5149029, “New Aspects of Silibinin Stereoisomers and their 3-O-galloyl Derivatives on Cytotoxicity and Ceramide Metabolism in Hep G2 hepatocarcinoma Cell Line” (Iranian Journal of Pharmaceutical Research : IJPR, 2016).
Marks after values point to notes of the source that are not given here.

Legend:
Acid ceramidase (ACDase) = target: T1, Acid ceramidase (ACDase) (Homo sapiens, UniProt Q13510); experiment: ACDase activity assay (fluorogenic); assay type: cell-based; conditions: for ACDase activity in cell extract compared to control: Hep G2, 125 µM and higher concentrations
T1 construct: endogenous in cells; host or cells: Hep G2
T1 sequence (Q13510 22-395): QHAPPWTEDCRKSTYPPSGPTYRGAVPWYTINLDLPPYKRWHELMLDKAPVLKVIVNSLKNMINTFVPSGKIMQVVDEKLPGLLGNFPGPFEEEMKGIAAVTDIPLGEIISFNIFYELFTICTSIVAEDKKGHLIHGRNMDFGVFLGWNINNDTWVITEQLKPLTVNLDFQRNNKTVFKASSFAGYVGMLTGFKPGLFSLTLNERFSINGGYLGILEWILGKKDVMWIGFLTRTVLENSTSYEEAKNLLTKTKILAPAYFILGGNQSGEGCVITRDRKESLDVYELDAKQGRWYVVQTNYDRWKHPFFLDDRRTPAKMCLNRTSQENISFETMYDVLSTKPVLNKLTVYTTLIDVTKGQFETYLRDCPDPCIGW
Description: (§1) The cell line was grown in RPMI-1640 medium supplemented with L-glutamine 2 mM, HEPESNa 25 mM, penicillin 100 U/mL, streptomycin 100 μg/mL and 10% […] (FBS) at 37 °C in a humidified atmosphere containing 5% CO2. Hep G2 cells were seeded at 1 × 10^6 cells/mL and sub cultured every 2–3 days after 60–80% confluence was reached. To prepare the lysates cells attached to the culture plate were scraped off with a cell scraper and collected in a 1.5 mL tube by centrifugation. The cell pellets were rinsed with PBS, suspended in sterile water, and then lysed by sonication. For each experiment, the cells were treated separately with increasing concentrations of silibinin derivatives (0, 25, 50, 75, 100, 125, 150, 175 and 200 μM) and incubated for 48 h.
ACDase activity was measured in intact cells and in cell lysates by fluorogenic assays. For intact cell assays, cells (10,000/well) were seeded into 96-well plates in 10% FBS medium. After 24 h, medium was removed and replaced with 5% FBS medium containing indicated concentrations of silibinin derivatives (controls contained ethanol vehicle). Plates were placed in a tissue culture incubator at 37 °C, 5% CO2 for 24 h and cell viability assays were conducted in parallel. Fluorogenic substrate (ethanol vehicle) was then added to a final concentration of 16μM (125 μL final well volume), and the plates were incubated for 3 h at 37 °C, 5% CO2. To complete the assays, 50 μL methanol and 100 μL NaIO4 (2.5 mg/mL) in 0.1 M glycine buffer with a pH of 10.6 were added and the plates were incubated in a dark place for 2 h at 37 °C. Fluorescence was measured in the UV range (365 nm excitation/410–460 nm emission) using a GloMax® multi-detection system (Promega, Madison, WI).
To measure ACDase activity in cell lysates, cells were harvested using trypsin/EDTA, washed three times in ice-cold PBS and re-suspended at a concentration of 1 × 10^6 cells/mL in 0.2 M sucrose. After sonication on ice (microtip, 5–10 s), lysates were centrifuged at 20,000 × g at 4 °C for 15 min to remove debris. Protein in the supernatant was measured using the BCA assay (Pierce Products, Thermo Scientific, Rockford, IL) and bovine serum albumin standard curves. Supernatant protein (60 μg) was added to 96-well plates containing the indicated compounds and sodium acetate–acetic acid buffer, pH 4.5 (25 mM), and incubated for 1 h at 37 °C, in final well volume of 100 μL. Fluorescent substrate was added to a final concentration of 40 μM (125 μL total well volume), and the assay was incubated in the dark at 37 °C for 3 h. Fluorescence was then measured as described above ([23]).

caspase-3 = experiment: Caspase-3 activity, colorimetric substrate Ac-DEVD-pNA; assay type: cell-based, human; conditions: Hep G2, 48 h, control 0.38
Description: as §1
(§2) The activities of caspase-3 and 9 were measured using colorimetric substrates. Cells were added to a lysis buffer (100 mM HEPES [pH 7.5], 0.1% CHAPS, 1 mM PMSF, 10 mM MDTT, 1 mM EDTA) and placed on ice for 30 min. After the cells were centrifuged at 10,000 × g for 10 min at 4 °C, 50 μg of protein from the supernatants was added to each of the caspase substrates. The colorimetric substrates for caspase-3 and 9 were Ac-DEVD-pNA (Asp-Glu-Val-Asp-pNA) and Ac-LEHD-pNA (N-acetyl-Leu-Glu-His-Asp-pNA), respectively. After a 2 h incubation, to measure p-nitroanilide absorbance was determined at 405 nm ([34]).

[1] = test system: Neutral sphingomyelinase (NSMase); experiment: NSMase activity assay (Amplex Red kit); assay type: cell-based, human; conditions: Hep G2, 125 µM and higher concentrations
Description: as §1
Amplex™ Red NSMase Assay Kit (AAT Bioquest®, Inc. product no: 13620) was used to determine NSMases activity. The kit uses Amplite™ Red as a colorimetric probe to indirectly quantify the phosphocholine produced from the hydrolysis of sphingomyelin by NSMase.
Cells were washed with ice cold PBS and homogenized in neutral lysis buffer (20 mM Tris–HCl pH 7.4, 2 mM EDTA, 5 mM EGTA, 1 mM PMSF, 1% protein cocktail inhibitor and 1 mM sodium orthovanadate) for NSMase assays. Samples were kept on ice 15 min and centrifuged at 14,000 × g for 20 min at 4 °C. 100 µL of each supernatant fraction were incubated at 37 °C for 1hour with working solution. The fluorescence count of produced resorophine in the previous step was measured with a fluorescence micro plate reader by using excitation at 540 nm and emission at 590 nm ([36]).

caspase-9 = experiment: Caspase-9 activity, colorimetric substrate Ac-LEHD-pNA; assay type: cell-based, human; conditions: Hep G2, 48 h, control 0.26
Description: as §1, §2

Hep G2 cells = experiment: Cell viability, MTT colorimetric assay; assay type: cell-based; conditions: Hep G2, 48 h
Description: The cell line was grown in RPMI-1640 medium supplemented with L-glutamine 2 mM, HEPESNa 25 mM, penicillin 100 U/mL, streptomycin 100 μg/mL and 10% phosphate-buffered saline (FBS) at 37 °C in a humidified atmosphere containing 5% CO2. Hep G2 cells were seeded at 1 × 10^6 cells/mL and sub cultured every 2–3 days after 60–80% confluence was reached. […] For each experiment, the cells were treated separately with increasing concentrations of silibinin derivatives (0, 25, 50, 75, 100, 125, 150, 175 and 200 μM) and incubated for 48 h.
To measure cell viability, the 3-(4,5-dimethylthiazol-2-yl)-2,5-diphenyl tetrazolium bromide (MTT) colorimetric assay was performed as published ([32], [33]). Briefly, Hep G2 cells were seeded onto 96 flat bottom well plates (50 × 10^3 cells/well) and grown overnight. After the incubation period with silibinin isomers, cells were washed twice with phosphate-buffered saline solution and incubated with MTT solution at a final concentration of 0.5 mg/mL for 3 h and then lysed in dimethyl sulfoxide. Optical density was measured at 540 nm and the background absorbance measured at 660 nm was subtracted. Each experiment was replicated separately for three times.

NSMase activity in comparison with control [1]	Structure (SMILES)	Caspase-3 (ΔOD 405nm) (caspase-3; 25 micro molar)	Caspase-3 (ΔOD 405nm) (caspase-3; 50 micro molar)	Caspase-3 (ΔOD 405nm) (caspase-3; 75 micro molar)	Caspase-3 (ΔOD 405nm) (caspase-3; 100 micro molar)	Caspase-3 (ΔOD 405nm) (caspase-3; 125 micro molar)	Caspase-3 (ΔOD 405nm) (caspase-3; 150 micro molar)	Caspase-3 (ΔOD 405nm) (caspase-3; 175 micro molar)	Caspase-3 (ΔOD 405nm) (caspase-3; 200 micro molar)	Caspase-9 (ΔOD 405nm) (caspase-9; 25 micro molar)	Caspase-9 (ΔOD 405nm) (caspase-9; 50 micro molar)	Caspase-9 (ΔOD 405nm) (caspase-9; 75 micro molar)	Caspase-9 (ΔOD 405nm) (caspase-9; 100 micro molar)	Caspase-9 (ΔOD 405nm) (caspase-9; 125 micro molar)	Caspase-9 (ΔOD 405nm) (caspase-9; 150 micro molar)	Caspase-9 (ΔOD 405nm) (caspase-9; 175 micro molar)	Caspase-9 (ΔOD 405nm) (caspase-9; 200 micro molar)	Cell viability (% of control) (Hep G2 cells; 25 micro molar)	Cell viability (% of control) (Hep G2 cells; 50 micro molar)	Cell viability (% of control) (Hep G2 cells; 75 micro molar)	further results
considerable increase	COc1cc([C@@H]2Oc3cc([C@H]4Oc5cc(O)cc(O)c5C(=O)[C@@H]4O)ccc3O[C@H]2CO)ccc1O [SB, silybin B]	0.34 ± 0.050 ΔOD 405nm	0.45 ± 0.060 ΔOD 405nm	0.58 ± 0.076 ΔOD 405nm	0.53 ± 0.065 ΔOD 405nm	0.62 ± 0.095 ΔOD 405nm	0.73 ± 0.105 ΔOD 405nm	0.82 ± 0.130 ΔOD 405nm	0.79 ± 0.096 ΔOD 405nm	0.30 ± 0.048 ΔOD 405nm	0.41 ± 0.055 ΔOD 405nm	0.47 ± 0.070 ΔOD 405nm	0.56 ± 0.067 ΔOD 405nm	0.60 ± 0.083 ΔOD 405nm	0.67 ± 0.105 ΔOD 405nm	0.81 ± 0.126 ΔOD 405nm	0.89 ± 0.114 ΔOD 405nm	94 + 10.3 % of control	89 + 10.5 % of control	81 + 10.7^* % of control	ACDase activity in cell extract compared to control (Acid ceramidase (ACDase)): markedly inhibited; Cell viability (% of control) (Hep G2 cells; 100 micro molar): 70 + 10.0^* % of control; Cell viability (% of control) (Hep G2 cells; 125 micro molar): 60 + 7.9^* % of control; Cell viability (% of control) (Hep G2 cells; 150 micro molar): 51 + 7.6^* % of control; Cell viability (% of control) (Hep G2 cells; 175 micro molar): 45 + 5.1^* % of control; Cell viability (% of control) (Hep G2 cells; 200 micro molar): 40 + 6.0^* % of control
considerable increase	COc1cc([C@H]2Oc3cc([C@H]4Oc5cc(O)cc(O)c5C(=O)[C@@H]4O)ccc3O[C@@H]2CO)ccc1O [SA, silybin A]	0.45 ± 0.055 ΔOD 405nm	0.58 ± 0.080 ΔOD 405nm	0.65 ± 0.098 ΔOD 405nm	0.79 ± 0.107 ΔOD 405nm	0.91 ± 0.133 ΔOD 405nm	0.98 ± 0.148 ΔOD 405nm	1.12 ± 0.164 ΔOD 405nm	1.06 ± 0.152 ΔOD 405nm	0.41 ± 0.060 ΔOD 405nm	0.50 ± 0.089 ΔOD 405nm	0.61 ± 0.102 ΔOD 405nm	0.73 ± 0.110 ΔOD 405nm	0.84 ± 0.133 ΔOD 405nm	0.96 ± 0.143 ΔOD 405nm	1.10 ± 0.164 ΔOD 405nm	1.16 ± 0.147 ΔOD 405nm	97 + 10.0 % of control	95 + 10.3 % of control	89 + 11.4 % of control	ACDase activity, effect of cell exposure (Acid ceramidase (ACDase); Hep G2, throughout the concentration range (0-200 µM)): could not alter ACDase activity; inhibition at 200 µM (Acid ceramidase (ACDase); HepG2, Hep G2 cell extract, 200 µM): 18%; Cell viability (% of control) (Hep G2 cells; 100 micro molar): 83 + 9.5 % of control; Cell viability (% of control) (Hep G2 cells; 125 micro molar): 71 + 8.3^* % of control; Cell viability (% of control) (Hep G2 cells; 150 micro molar): 63 + 7.4^* % of control; Cell viability (% of control) (Hep G2 cells; 175 micro molar): 52 + 6.0^* % of control; Cell viability (% of control) (Hep G2 cells; 200 micro molar): 47 + 5.5^* % of control
considerable increase	COc1cc([C@H]2Oc3cc([C@H]4Oc5cc(O)cc(O)c5C(=O)[C@@H]4OC(=O)c4cc(O)c(O)c(O)c4)ccc3O[C@@H]2CO)ccc1O [SGA, 3-O-galloyl silybin A]	0.35 ± 0.038 ΔOD 405nm	0.46 ± 0.062 ΔOD 405nm	0.58 ± 0.070 ΔOD 405nm	0.67 ± 0.084 ΔOD 405nm	0.83 ± 0.114 ΔOD 405nm	0.97 ± 0.134 ΔOD 405nm	1.12 ± 0.147 ΔOD 405nm	1.26 ± 0.164 ΔOD 405nm	0.23 ± 0.029 ΔOD 405nm	0.40 ± 0.053 ΔOD 405nm	0.55 ± 0.070 ΔOD 405nm	0.86 ± 0.136 ΔOD 405nm	0.69 ± 0.103 ΔOD 405nm	0.80 ± 0.124 ΔOD 405nm	1.19 ± 0.147 ΔOD 405nm	1.30 ± 0.167 ΔOD 405nm	96 + 10.5 % of control	84 + 9.3^* % of control	73 + 10.7^* % of control	ACDase activity in cell extract compared to control (Acid ceramidase (ACDase)): markedly inhibited; Cell viability (% of control) (Hep G2 cells; 100 micro molar): 63 + 8.9^* % of control; Cell viability (% of control) (Hep G2 cells; 125 micro molar): 52 + 8.1^* % of control; Cell viability (% of control) (Hep G2 cells; 150 micro molar): 44 + 6.0^* % of control; Cell viability (% of control) (Hep G2 cells; 175 micro molar): 38 + 5.7^* % of control; Cell viability (% of control) (Hep G2 cells; 200 micro molar): 33 + 5.1^* % of control
